# Like-named read-outs stand apart in the source and are kept apart here.
# Legend:
# Spodoptera frugiperda = Spodoptera frugiperda spray test; assay type: in vivo; conditions: after 7 days, maize leaf discs; for pest or weed control at 100 g/ha / pest or weed control at 500 g/ha: Spodoptera frugiperda, foliar, 168 h, read-out: efficacy (caterpillars killed)
# How it was run: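 Efficacy in % was scored at 7 days against armyworm caterpillars placed on dried, compound-sprayed Zea mays leaf discs. Compound was dissolved in acetone/dimethylformamide and diluted in water with 1000 ppm alkylaryl polyglycol ether. 100% means all caterpillars were killed.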
# Lucilia cuprina = Lucilia cuprina test; assay type: in vivo; conditions: application rate 100 ppm, after 2 days, L1 larvae
# Procedure: Lucilia cuprina Test Solvent: dimethyl sulphoxide To produce a suitable active ingredient formulation, 10 mg of active ingredient are mixed with 0.5 ml of dimethyl sulphoxide, and the concentrate is diluted with water to the desired concentration. About 20 L1 larvae of the Australian sheep blowfly (Lucilia cuprina) are transferred into a test vessel containing minced horsemeat and the active ingredient formulation of the desired concentration. After 2 days, the kill in % is determined. 100% means that all the larvae have been killed; 0% means that no larvae have been killed.
# [1] = log P by HPLC on reversed-phase column (C 18), EEC Directive 79/831 Annex V.A8; assay type: physicochemical; conditions: 55° C.; for LOGP_HCOOH: log P (HCOOH); for chromatographic logP: reversed-phase HPLC column (C 18)
# Procedure: Temperature: 55° C. […] Called log P (HCOOH) in the table. […] Called log P (neutral) in the table.
# Phaedon cochleariae = Phaedon cochleariae spray test; assay type: in vivo; conditions: after 7 days, Chinese cabbage leaf discs
# How it was run: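 Larval kill read at day 7 as percent, where 100% means every larva dead and 0% none; larvae were placed on dried Brassica pekinensis leaf discs previously sprayed with the formulation (acetone/dimethylformamide solvent, alkylaryl polyglycol ether emulsifier, water).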
# Ctenocephalides felis = Ctenocephalides felis oral test; assay type: in vivo; conditions: application rate 100 ppm in citrated cattle blood, after 2 days, adult cat fleas; for pest or weed control at 100 ppm: Ctenocephalides felis, po, 48 h, read-out: efficacy (kill in %)
# Procedure: Ctenocephalides felis—Oral Test Solvent: dimethyl sulphoxide To produce a suitable active ingredient formulation, 10 mg of active ingredient are mixed with 0.5 ml of dimethyl sulphoxide. Dilution with citrated cattle blood gives the desired concentration. About 20 unfed adult cat fleas (Ctenocephalides felis) are placed into a chamber which is closed at the top and bottom with gauze. A metal cylinder whose bottom end is closed with parafilm is placed onto the chamber. The cylinder contains the blood/active ingredient formulation, which can be imbibed by the fleas through the parafilm membrane. After 2 days, the kill in % is determined. 100% means that all of the fleas have been killed; 0% means that none of the fleas have been killed.
# [2] = acidic range pH 2.7, 0.1% aqueous formic acid and acetonitrile, reversed-phase column (C 18)
# [3] = log P, neutral range, HPLC on reversed-phase column (C 18)
# [4] = pH 2.7, LC-MS acidic range, pH 2.7, 0.1% formic acid/acetonitrile, read-out: log P (acidic) / log P (HCOOH)
# [5] = pH 7.8, LC-MS neutral range, pH 7.8, ammonium hydrogencarbonate/acetonitrile, read-out: log P (neutral)
# [6] = Phaedon cochleariae, foliar, 168 h, application rate 500 g/ha, read-out: efficacy (beetle larvae killed)
# [7] = acidic range at pH 2.7, 0.1% aqueous formic acid and acetonitrile, HPLC on reversed-phase column (C 18)
Compound,efficacy (caterpillars killed) (Spodoptera frugiperda; application rate 100 g/ha) [%],efficacy (caterpillars killed) (Spodoptera frugiperda; application rate 500 g/ha) [%],efficacy (kill in %) (Lucilia cuprina) [%],"LOGP_HCOOH [1, 2]",efficacy (beetle larvae killed) (Phaedon cochleariae; application rate 100 g/ha) [%],efficacy (beetle larvae killed) (Phaedon cochleariae; application rate 500 g/ha) [%],efficacy (kill in %) (Ctenocephalides felis) [%],"LOGP_NEUTRAL [1, 3]",pest or weed control at 100 g/ha (Spodoptera frugiperda; application rate 100 g/ha) [%],pest or weed control at 500 g/ha (Spodoptera frugiperda; application rate 500 g/ha) [%],"chromatographic logP [1, 4]","chromatographic logP [1, 5]","pest or weed control at 100 g/ha (Phaedon cochleariae; Phaedon cochleariae, foliar, 168 h, application rate 100 g/ha, read-out: efficacy (beetle larvae killed)) [%]",pest or weed control at 500 g/ha (Phaedon cochleariae; [6]) [%],pest or weed control at 100 ppm (Ctenocephalides felis) [%],"LOGP_HCOOH [1, 7]","LOGP_NEUTRAL ([1]; log P (neutral), HPLC reversed-phase column (C 18))"
N#Cc1ccc(CNC(=O)c2cc(-c3ccc(C(F)(F)F)cc3)cc(NC(=O)C3CC3)n2)cc1 [Example I-005],100,100,100,3.73,100,100,100,,,,,,,,,,
O=C(NCc1ccc(Cl)cc1)c1cc(-c2ccc(C(F)(F)F)cc2)cc(NC(=O)C2CC2)n1 [Example I-008],100,100,95,4.48,,,100,4.34,,,,,,,,,
CC(C)C(=O)Nc1cc(-c2ccc(C(F)(F)F)cc2)cc(C(=O)NCc2ccc(C#N)cc2)n1 [Example I-015],100,100,100,3.91,83,100,98,3.85,,,,,,,,,
O=C(Nc1ccc(Cl)cc1)c1cc(-c2ccc(C(F)(F)F)cc2)cc(NC(=O)C2CC2)n1 [Example I-021],,100,85,4.96,,100,,5.08,,,,,,,,,
O=C(NCc1ccc(C(F)(F)F)cc1)c1cc(-c2ccc(C(F)(F)F)cc2)cc(NC(=O)C2CC2)n1 [Example I-027],100,100,90,4.62,100,100,100,4.50,,,,,,,,,
O=C(NC1CC1)c1cc(-c2ccc(OC(F)F)cc2)cc(NC(=O)C2CC2)n1 [Example I-030],83,100,90,2.94,100,100,100,2.83,,,,,,,,,
CN(Cc1ccc(C#N)cc1)C(=O)c1cc(-c2ccc(C(F)(F)F)cc2)cc(NC(=O)C2CC2)n1 [Example I-043],,100,100,3.67,,100,100,3.58,,,,,,,,,
"N#Cc1ccc(CNC(=O)c2cc(-c3ccc(OC(F)(F)F)cc3)cc(NC(=O)C3CC3)n2)cc1 [Example I-044, N-(4-Cyanobenzyl)-6-[(cyclopropylcarbonyl)amino]-4-[4-(trifluoromethoxy)phenyl]pyridine-2-carboxamide]",,,100,3.90,,,,3.76,100,100,3.9,3.76,100,100,100,,
CCC(=O)Nc1cc(-c2ccc(C(F)(F)F)cc2)cc(C(=O)NCc2ccc(C#N)cc2)n1 [Example I-048],83,100,100,4.59,,100,,3.47,,,,,,,,,
N#Cc1ccc(CNC(=O)c2cc(-c3ccc(SC(F)(F)F)cc3)cc(NC(=O)C3CC3)n2)cc1 [Example I-052],100,100,100,4.19,100,100,100,4.01,,,,,,,,,
N#Cc1ccc(CNC(=O)c2cc(-c3ccc(Br)cc3)cc(NC(=O)C3CC3)n2)cc1 [Example I-053],,100,100,3.73,,100,95,3.61,,,,,,,,,
CC(C)C(=O)Nc1cc(-c2ccc(OC(F)(F)F)cc2)cc(C(=O)NCc2cc(F)c(C#N)cc2F)n1 [Example I-110],100,100,,,100,100,100,4.19,,,,,,,,4.33,
O=C(NCc1ccccn1)c1cc(-c2ccc(OC(F)(F)F)cc2)cc(NC(=O)C2CC2)n1 [Example I-116],,100,,,100,100,100,3.30,,,,,,,,2.88,
C#CC(C)NC(=O)c1cc(-c2ccc(OC(F)(F)F)cc2)cc(NC(=O)C2CC2)n1 (stereo not shown) [Example I-130],83,100,,,100,100,100,,,,,,,,,3.84,
N#CCNC(=O)c1cc(-c2ccc(OC(F)(F)F)cc2)cc(NC(=O)C2CC2)n1 [Example I-131],100,100,,,,100,100,,,,,,,,,3.15,
O=C(NC1CCC1)c1cc(-c2ccc(OC(F)(F)F)cc2)cc(NC(=O)C2CC2)n1 [Example I-133],100,100,100,,,,100,,,,,,,,,4.00,
N#Cc1ccc(CNC(=O)c2cc(-c3ccc(SC4CC4)cc3)cc(NC(=O)C3CC3)n2)cc1 [Example I-142],,,90,,100,100,100,3.86,,,,,,,,4.07,
N#Cc1ccc(CNC(=O)c2cc(-c3ccc([S+]([O-])C(F)F)cc3)cc(NC(=O)C3CC3)n2)cc1 (stereo not shown) [Example I-179],,83,,,83,100,100,2.47,,,,,,,,2.53,
NC(=S)C1(NC(=O)c2cc(-c3ccc(OC(F)(F)F)cc3)cc(NC(=O)C3CC3)n2)CC1 [Example I-189],100,100,,,100,100,100,3.14,,,,,,,,3.25,
O=C(NCc1ccc(F)c(C(F)(F)F)c1)c1cc(-c2ccc(OC(F)(F)F)cc2)cc(NC(=O)C2CC2)n1 [Example I-226],83,100,,,,100,100,,,,,,,,,4.64,
"COC(=O)N(C(=O)C1CC1)c1cc(-c2ccc(OC(F)(F)F)cc2)cc(C(=O)NCc2ccc(C#N)cc2)n1 [Example I-233, Methyl {6-[(4-cyanobenzyl)carbamoyl]-4-[4-(trifluoromethoxy)phenyl]pyridin-2-yl}(cyclopropylcarbonyl)carbamate]",,,,3.90,,,,,100,100,3.9,3.91,,100,100,,3.91

# Reference: patent US20190053492A1, “SUBSTITUTED PYRIDINE COMPOUNDS AS PESTICIDES” (Bayer CropScience Aktiengesellschaft, priority 2016, published 2019)
